This passage reports IC50 results from ChEMBL document CHEMBL1139038, “Design and synthesis of 3-substituted benzamide derivatives as Bcr-Abl kinase inhibitors” (Bioorg Med Chem Lett, 2006).

One experiment deals with K562. Nature of the experiment: Antiproliferative activity against K562 cells. It counts as functional, cell-based. As to conditions: Homo sapiens.
For a further experiment, the system named is U-937. Nature of the experiment: Antiproliferative activity against U937 cells. It counts as functional, cell-based. As to conditions: Homo sapiens.

A word on the IC50: it is the point on the concentration scale where inhibition reaches its midpoint. Higher therefore signals weaker potency.

Regarding `Cc1ccc(NC(=O)c2ccc(CN3CC[C@@H](CN(C)C)C3)c(C(F)(F)F)c2)cc1Nc1nccc(-c2cncnc2)n1`, the IC50 in the experiment with K562 is 0.009 µM; in the experiment on U-937, more than 100 µM.

For `Cc1ccc(NC(=O)c2ccc(CN3CC[C@H](N(C)C)C3)c(C(F)(F)F)c2)cc1Nc1nccc(-c2cncnc2)n1` [BAFETINIB], the results for the IC50 in the experiment with K562 and in the experiment on U-937 were 0.011 µM and 10 µM, respectively.

Regarding `Cc1ccc(NC(=O)c2ccc(CN3CCN(C)CC3)c(C(F)(F)F)c2)cc1Nc1nccc(-c2cncnc2)n1`, in the experiment with U-937, the IC50 was determined as 5 µM.

As to `Cc1ccc(NC(=O)c2ccc(CN3CCN(C)CC3)c(Br)c2)cc1Nc1nccc(-c2cccnc2)n1`, the IC50 with U-937 worked out at 5 µM.

As to `Cc1ccc(NC(=O)c2ccc(CN3CCN(C)CC3)c(F)c2)cc1Nc1nccc(-c2cccnc2)n1`, the midpoint of inhibition in the experiment with U-937, the IC50, lay at 8 µM.

Take `Cc1ccc(NC(=O)c2ccc(CN3CC[C@@H](N(C)C)C3)c(C(F)(F)F)c2)cc1Nc1nccc(-c2cncnc2)n1`: the IC50 is 0.004 µM in the experiment with K562 and 9 µM in the experiment on U-937.

As to `Cc1ccc(NC(=O)c2ccc(CN3CCN(C)CC3)c(Cl)c2)cc1Nc1nccc(-c2cccnc2)n1`, the results for the IC50 in the experiment on K562 and in the experiment on U-937 were 0.01 µM and 9 µM, respectively.

As for `Cc1ccc(NC(=O)c2ccc(CN3CC[C@H](CN(C)C)C3)c(C(F)(F)F)c2)cc1Nc1nccc(-c2cncnc2)n1`, the IC50 in the experiment with K562 was determined as 0.011 µM; in the experiment on U-937, 20 µM.

As to `Cc1ccc(NC(=O)c2ccc(CN3CCN(C)CC3)cc2)cc1Nc1nccc(-c2cccnc2)n1` [IMATINIB], in the experiment on U-937, the IC50 is 14 µM.

Regarding `Cc1ccc(NC(=O)c2ccc(CN3CC(N(C)C)C3)c(C(F)(F)F)c2)cc1Nc1nccc(-c2cncnc2)n1`, the results for the concentration for half-maximal inhibition (IC50) with K562 and with U-937 were 0.017 µM and more than 100 µM, respectively.

On to `Cc1ccc(NC(=O)c2ccc(CN3CCN(C)CC3)c(I)c2)cc1Nc1nccc(-c2cccnc2)n1`, for which the IC50 stood at 0.01 µM in the experiment on K562 and 6 µM in the experiment on U-937.

In the experiment on U-937, `Cc1ccc(NC(=O)c2ccc(CN3CCN(C)CC3)c(C(F)(F)F)c2)cc1Nc1nccc(-c2cccnc2)n1` showed an IC50 of 4 µM.
